Source: patent US20010051636A1, “Combination treatment for inhibiting bone loss” (priority 1994, published 2001)
Marks after values point to notes of the source that are not given here.

Tests used:
Format in all cases: in vivo
[1] = system: ovariectomized (ovex) rats; assay: 5-week ovex rat model of post-menopausal osteoporosis: femur density by X-ray grey scale image analysis; conditions: for anti-resorptive activity (in words): 0.1 mg/kg, each compound separately; for RANGE 0-60 (relative density of bone, femur X-ray grey scale): Table 3
Description: In the following, a model of post-menopausal osteoporosis was used in which effects of different treatments upon femur density were determined.
Seventy-five day old female Sprague Dawley rats (weight range of 225 to 275 g) were obtained from Charles River Laboratories (Portage, Mich.). They were housed in groups of 3 and had ad libitum access to food (calcium content approximately 1%) and water. Room temperature was maintained at 22.2°±1.7° C. with a minimum relative humidity of 40%. The photoperiod in the room was 12 hours light and 12 hours dark.
One week after arrival, the rats underwent bilateral ovariectomy under anesthesia (44 mg/kg Ketamine and 5 mg/kg Xylazine (Butler, Indianapolis, Ind.) administered intramuscularly). Treatment with vehicle or the indicated compound was initiated either on the day of surgery following recovery from anesthesia or 35 days following the surgery.
Oral dosage was by gavage in 0.5 mL of 1% carboxymethylcellulose (CMC).
(§1) Body weight was determined at the time of surgery and weekly during the study, and the dosage was adjusted with changes in body weight. Vehicle-treated ovariectomized (ovex) rats and non-ovariectomized (intact) rats were evaluated in parallel with each experimental group to serve as negative and positive controls.
(§2) The rats were treated daily for 35 days (6 rats per treatment group) and sacrificed by decapitation on the 36th day. […] At the time of sacrifice, the uteri were removed, dissected free of extraneous tissue, and the fluid contents were expelled before determination of wet weight in order to confirm estrogen deficiency associated with complete ovariectomy. […] The uteri were then placed in 10% neutral buffered formalin to allow for subsequent histological analysis.
The right femurs are excised and scanned at the distal metaphysis proximal from the growth plate region by grey scale image analysis of digitalized X-ray generation on a Nicolet NXR-1200 real time X-ray imaging system.

[2] = Body weight change in the ovex rat study BBA-9311
Description: as §1

[3] = system: ovariectomized (ovex) rats; assay: Uterine wet weight in the ovex rat study BBA-9311
Description: as §2

[4] = Table 1, 1 mg/kg PO CDX, 47KV/4.5C, 35 days

## NCCCC(O)(P(=O)(O)O)P(=O)(O)O [ALN, Alendronate]
[1]
  anti-resorptive activity (in words): inactive
[2]; Table 4 BBA-9311, 1 mg/kg
  Ave BW Chg: 106.000
[2]; Table 4 BBA-9311, .1 mg/kg
  Ave BW Chg: 102.167
[3]; Table 4 BBA-9311, 1 mg/kg
  Ave Ut Wt: 108.667
[3]; Table 4 BBA-9311, .1 mg/kg
  Ave Ut Wt: 100.833

## C#C[C@]1(O)CC[C@H]2[C@@H]3CCc4cc(O)ccc4[C@H]3CC[C@@]21C [EE2, ethynylestradiol]
[1]; Table 1, 100 μg/kg PO CDX
  RANGE 0-50 (relative density of bone, femur X-ray grey scale): 51.29*
[1]; Table 2, 30 μg/kg PO CDX
  RANGE 0-50 (relative density of bone, femur X-ray grey scale): 50.87
[1]; Table 2, 100 μg/kg PO CDX
  RANGE 0-50 (relative density of bone, femur X-ray grey scale): 61.09*
[1]; 100 μg/kg PO CDX
  RANGE 0-60 (relative density of bone, femur X-ray grey scale): 62.88*
[2]; Table 4, 100 μg/kg
  Ave BW Chg: 49.000
[3]; Table 4, 100 μg/kg
  Ave Ut Wt: 399.000

## CC(=O)O[C@]1(C(C)=O)CC[C@H]2[C@@H]3C[C@H](C)C4=CC(=O)CC[C@]4(C)[C@H]3CC[C@@]21C [Provera]
[1]; 10 mg/kg, by itself
  protection from bone loss (in words): protective effect
[1]; [4]
  RANGE 0-50 (relative density of bone, femur X-ray grey scale): 30.10
[1]; Table 1, 10 mgmg/kg PO CDX, 47KV/4.5C, 35 days
  RANGE 0-50 (relative density of bone, femur X-ray grey scale): 64.16*

## Cl.O=C(c1ccc(OCCN2CCCCC2)cc1)c1c(-c2ccc(O)cc2)sc2cc(O)ccc12 [RAL, [6-hydroxy-2-(4-hydroxyphenyl)benzo[b]thien-3-yl][4-[2-(1-piperidinyl)ethoxy]phenyl]methanone hydrochloride]
[1]
  anti-resorptive activity (in words): inactive
[1]; [4]
  RANGE 0-50 (relative density of bone, femur X-ray grey scale): 57.67*
[1]; Table 2, 1 mg/kg PO CDX
  RANGE 0-50 (relative density of bone, femur X-ray grey scale): 80.98*
[1]; 0.1 mg/kg PO CDX, 47KV/4.5C
  RANGE 0-60 (relative density of bone, femur X-ray grey scale): 36.76
[1]; 1 mg/kg PO CDX
  RANGE 0-60 (relative density of bone, femur X-ray grey scale): 40.37
[2]; Table 4 BBA-9311, 1 mg/kg
  Ave BW Chg: 49.667
[2]; Table 4 BBA-9311, .1 mg/kg
  Ave BW Chg: 75.833
[3]; Table 4 BBA-9311, 1 mg/kg
  Ave Ut Wt: 166.000
[3]; Table 4 BBA-9311, .1 mg/kg
  Ave Ut Wt: 157.667
